Source: PubChem BioAssay AID2060627 (Molecular Pharmacology Branch, DTP, NCI, 2025)

System: 156681-154-R-J1-PDC complex spheroid viability
Test: Anticancer human tumor 156681-154-R-J1-PDC patient-derived melanoma cell line growth inhibition [CLK]
Conditions: for IC50: curve of first compound; for viability, T/C: stronger effect = lower value; active = viability on the fitted dose curve at most 10% of control; inactive = the rest
Summary of the method: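 Multi-cell-type spheroids combined patient-derived tumor cells with HUVEC endothelial cells and human mesenchymal stem cells. Paired agents were dosed in half-log steps down from about clinical Cmax, or from 10 microM where Cmax was unknown.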

[1] = second compound 0.0316 µM, first compound 0.000949 µM
[2] = second compound 0.0316 µM, first compound 0.003 µM
[3] = second compound 0.0316 µM, first compound 0.00949 µM
[4] = second compound 0.0316 µM, first compound 0.03 µM
[5] = second compound 0.0316 µM, first compound 0.0949 µM
[6] = second compound 0.0316 µM, first compound 0.3 µM
[7] = second compound 0.1 µM, first compound 0.000949 µM
[8] = second compound 0.1 µM, first compound 0.003 µM
[9] = second compound 0.1 µM, first compound 0.00949 µM
[10] = second compound 0.1 µM, first compound 0.03 µM
[11] = second compound 0.1 µM, first compound 0.0949 µM
[12] = second compound 0.1 µM, first compound 0.3 µM
[13] = second compound 0.316 µM, first compound 0.000949 µM
[14] = second compound 0.316 µM, first compound 0.003 µM
[15] = second compound 0.316 µM, first compound 0.00949 µM
[16] = second compound 0.316 µM, first compound 0.03 µM
[17] = second compound 0.316 µM, first compound 0.0949 µM
[18] = second compound 0.316 µM, first compound 0.3 µM
[19] = second compound 1 µM, first compound 0.000949 µM
[20] = second compound 1 µM, first compound 0.003 µM
[21] = second compound 1 µM, first compound 0.00949 µM
[22] = second compound 1 µM, first compound 0.03 µM
[23] = second compound 1 µM, first compound 0.0949 µM
[24] = second compound 1 µM, first compound 0.3 µM
[25] = second compound 3.16 µM, first compound 0.000949 µM
[26] = second compound 3.16 µM, first compound 0.003 µM
[27] = second compound 3.16 µM, first compound 0.00949 µM
[28] = second compound 3.16 µM, first compound 0.03 µM
[29] = second compound 3.16 µM, first compound 0.0949 µM
[30] = second compound 3.16 µM, first compound 0.3 µM
[31] = second compound 10 µM, first compound 0.000949 µM
[32] = second compound 10 µM, first compound 0.003 µM
[33] = second compound 10 µM, first compound 0.00949 µM
[34] = second compound 10 µM, first compound 0.03 µM
[35] = second compound 10 µM, first compound 0.0949 µM
[36] = second compound 10 µM, first compound 0.3 µM
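Also: spheroids exposed to the agents for seven days.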
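For viability, T/C in this document: 100% = DMSO vehicle control viability.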

CC(C)CC(NC(=O)C(Cc1ccccc1)NC(=O)c1cnccn1)B(O)O (centres undefined) + CN1CCN(c2cc(C(=O)Nc3cc4cc(-c5cnn(C)c5)ccc4cn3)ccn2)CC1
active: viability, T/C [2] 2% | viability, T/C [3] 1.41% | viability, T/C [4] 0.26% | viability, T/C [5] 1.66% | viability, T/C [6] 1.32% | viability, T/C [8] 0.48% | viability, T/C [9] 1.04% | viability, T/C [10] 0.2% | viability, T/C [11] 0.26% | viability, T/C [12] 0.77% | viability, T/C [14] 0.37% | viability, T/C [15] 0.66% | viability, T/C [16] 0.14% | viability, T/C [17] 0.29% | viability, T/C [18] 1.48% | viability, T/C [19] 0.13% | viability, T/C [20] 0.37% | viability, T/C [21] 0.14% | viability, T/C [22] 0.09% | viability, T/C [23] 1.37% | viability, T/C [24] 0.12% | viability, T/C [25] 0.33% | viability, T/C [26] 1.51% | viability, T/C [27] 0.09% | viability, T/C [28] 0.08% | viability, T/C [29] 3.52% | viability, T/C [30] 1.36% | viability, T/C [31] 0.1% | viability, T/C [32] 1.45% | viability, T/C [33] 2.17% | viability, T/C [34] 0.1% | viability, T/C [35] 1.66% | viability, T/C [36] 0.84%
< 0.949 nM: IC50 (second compound 0.0316 µM) | IC50 (second compound 0.1 µM) | IC50 (second compound 0.316 µM) | IC50 (second compound 1 µM) | IC50 (second compound 3.16 µM) | IC50 (second compound 10 µM)
inactive: viability, T/C [1] 30.4% | viability, T/C [7] 28% | viability, T/C [13] 13%

C=CC(=O)Nc1cc(Nc2nccc(-c3cn(C)c4ccccc34)n2)c(OC)cc1N(C)CCN(C)C + CN1CCN(c2cc(C(=O)Nc3cc4cc(-c5cnn(C)c5)ccc4cn3)ccn2)CC1
> 300 nM: IC50 (second compound 0.0316 µM) | IC50 (second compound 0.1 µM)
inactive: viability, T/C [1] 102% | viability, T/C [2] 91.7% | viability, T/C [3] 112% | viability, T/C [4] 89.8% | viability, T/C [5] 94.8% | viability, T/C [6] 90% | viability, T/C [7] 99.7% | viability, T/C [8] 90.2% | viability, T/C [9] 97.7% | viability, T/C [10] 94.7% | viability, T/C [11] 77.6% | viability, T/C [12] 79.9% | viability, T/C [13] 19.2% | viability, T/C [14] 26.4% | viability, T/C [15] 23.4% | viability, T/C [16] 13.1% | viability, T/C [17] 24.2% | viability, T/C [18] 11.1%
< 0.949 nM: IC50 (second compound 0.316 µM) | IC50 (second compound 1 µM) | IC50 (second compound 3.16 µM) | IC50 (second compound 10 µM)
active: viability, T/C [19] 0.2% | viability, T/C [20] 0.66% | viability, T/C [21] 0.19% | viability, T/C [22] 0.27% | viability, T/C [23] 0.26% | viability, T/C [24] 1.38% | viability, T/C [25] 0.16% | viability, T/C [26] 1.53% | viability, T/C [27] 0.47% | viability, T/C [28] 0.12% | viability, T/C [29] 1.26% | viability, T/C [30] 0.93% | viability, T/C [31] 1.34% | viability, T/C [32] 0.16% | viability, T/C [33] 0.96% | viability, T/C [34] 1.65% | viability, T/C [35] 2.39% | viability, T/C [36] 2.57%
